Assay results published in ChEMBL document CHEMBL1125437, “Syntheses, resolution, and structure-activity relationships of potent acetylcholinesterase inhibitors: 8-carbaphysostigmine analogues” (J Med Chem, 1992).
pIC50: −log10 of the molar value.

Assays:
Acetylcholinesterase [1] = target: T1, Acetylcholinesterase (Homo sapiens, UniProt P22303); test: In vitro inhibitory activity against human AchE (Acetylcholinesterase)
Acetylcholinesterase [2] = target: T1, Acetylcholinesterase; test: In vitro inhibitory activity against human Acetylcholinesterase
[3] = (§1) In vitro lethality measured at 24 hours in mice following intraperitoneal administration; conditions: mouse, in vivo, ip, LD50
Mus musculus [4] = test: Percent elevation of ACh level in mouse forebrain following intraperitoneal administration at a dose of 3.4 mg/kg; format: functional
Mus musculus [5] = test: Percent elevation of ACh level in mouse forebrain following intraperitoneal administration at a dose of 2.0 mg/kg; format: functional
Mus musculus [6] = test: Percent elevation of ACh level in mouse forebrain following intraperitoneal administration at a dose of 0.4 mg/kg; format: functional
Mus musculus [7] = test: Percent elevation of ACh level in mouse forebrain following intraperitoneal administration at a dose of 1.6 mg/kg; format: functional
Mus musculus [8] = test: as §1; conditions: in vivo, ip, 24 h
Mus musculus [9] = test: Percent elevation of ACh level in mouse forebrain following intraperitoneal administration at a dose of 0.8 mg/kg; format: functional
Mus musculus [10] = test: Percent elevation of ACh level in mouse forebrain following intraperitoneal administration at a dose of 1.2 mg/kg; format: functional
Mus musculus [11] = test: Percent elevation of ACh level in mouse forebrain following intraperitoneal administration at a dose of 4.8 mg/kg; format: functional

T1 sequence (P22303 whole entry): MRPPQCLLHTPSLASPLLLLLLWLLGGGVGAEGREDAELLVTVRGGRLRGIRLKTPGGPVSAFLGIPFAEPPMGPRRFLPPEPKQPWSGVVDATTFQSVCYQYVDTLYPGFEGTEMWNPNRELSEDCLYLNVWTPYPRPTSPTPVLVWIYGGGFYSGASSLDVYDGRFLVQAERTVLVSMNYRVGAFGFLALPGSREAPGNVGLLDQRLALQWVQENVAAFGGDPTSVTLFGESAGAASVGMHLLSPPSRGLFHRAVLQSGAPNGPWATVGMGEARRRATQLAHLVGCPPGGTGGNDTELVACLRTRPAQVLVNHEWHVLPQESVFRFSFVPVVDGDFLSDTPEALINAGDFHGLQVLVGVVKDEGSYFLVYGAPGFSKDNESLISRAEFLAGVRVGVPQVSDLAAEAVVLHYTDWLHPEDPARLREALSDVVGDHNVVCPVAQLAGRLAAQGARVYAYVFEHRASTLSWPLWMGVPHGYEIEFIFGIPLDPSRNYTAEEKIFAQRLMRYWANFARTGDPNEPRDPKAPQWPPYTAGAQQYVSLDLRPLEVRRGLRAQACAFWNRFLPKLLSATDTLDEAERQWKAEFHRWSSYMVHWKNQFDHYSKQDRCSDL

SMILES | pIC50 (Acetylcholinesterase [1]) | LD50 at 24 h [3] | other results
CCN1CC[C@H]2c3cc(OC(=O)NC)ccc3CC21 (stereo partly drawn) | 6.60 |  | 
CCCCCCCNC(=O)Oc1ccc2c(c1)[C@]1(C)CCN(Cc3ccccc3)C1C2 (stereo partly drawn) |  |  | pIC50 (Acetylcholinesterase [2]): 6.30
CCCNC(=O)Oc1ccc2c(c1)[C@@H]1CCN(CC)C1C2 (stereo partly drawn) | 5.66 |  | 
CCCCCCCNC(=O)Oc1ccc2c(c1)[C@]1(C)CCN(C)C1C2 (stereo partly drawn) | 6.94 | 21 mg/kg | 
CCCCCCCNC(=O)Oc1ccc2c(c1)[C@@H]1CCN(CCC)C1C2 (stereo partly drawn) | 6.20 |  | 
CCN1CC[C@@]2(C)c3cc(OC(=O)N[C@@H](C)c4ccccc4)ccc3CC12 (stereo partly drawn) | 5.88 |  | 
CCCCCCCNC(=O)Oc1ccc2c(c1)[C@]1(C)CCN(CCC)C1C2 (stereo partly drawn) |  | 27 mg/kg | pIC50 (Acetylcholinesterase [2]): 7.03
CCCCCCNC(=O)Oc1ccc2c(c1)[C@]1(C)CCN(CCC)C1C2.Cc1ccc(C(=O)OC(C(=O)O)C(OC(=O)c2ccc(C)cc2)C(=O)O)cc1.O (mixture of isomers) |  | 17 mg/kg | pIC50 (Acetylcholinesterase [2]): 7.21; Control (Mus musculus [4]): 141%
CCCCCCNC(=O)Oc1ccc2c(c1)[C@@H]1CCN(CC)C1C2 (mixture of isomers) | 6.68 | 19 mg/kg | 
CCN1CC[C@@]2(C)c3cc(OC(=O)NC)ccc3CC12 (mixture of isomers) |  | 0.88 mg/kg | pIC50 (Acetylcholinesterase [2]): 7.42
CCCCCCNC(=O)Oc1ccc2c(c1)[C@]1(C)CCN(C)C1C2 (mixture of isomers) | 7.11 | 10 mg/kg | Control (Mus musculus [5]): 162%
CCN1CC[C@@]2(C)c3cc(OC(=O)NCc4ccccc4)ccc3CC12 (mixture of isomers) |  | 2 mg/kg | Control (Mus musculus [6]): 123%
CCCCNC(=O)Oc1ccc2c(c1)[C@]1(C)CCN(CC)C1C2 (mixture of isomers) |  | 4 mg/kg | pIC50 (Acetylcholinesterase [2]): 7.05
CCCCCCCNC(=O)Oc1ccc2c(c1)[C@@H]1CCN(CC)C1C2 (mixture of isomers) |  | 58 mg/kg | pIC50 (Acetylcholinesterase [2]): 6.42
CCCNC(=O)Oc1ccc2c(c1)[C@]1(C)CCN(CC)C1C2 (mixture of isomers) | 6.81 | 6 mg/kg | 
CCN1CC[C@@]2(C)c3cc(OC(=O)Nc4ccccc4)ccc3CC12 (mixture of isomers) | 6.75 | 8 mg/kg | Control (Mus musculus [7]): 121%
CCCCNC(=O)Oc1ccc2c(c1)[C@@H]1CCN(CC)C1C2 (mixture of isomers) | 5.97 | > 32 mg/kg | 
CCN1CC[C@@]2(C)c3cc(OC(=O)NC(C)(C)C)ccc3CC12 (mixture of isomers) |  | > 100 mg/kg | 
CCCCCCNC(=O)Oc1ccc2c(c1)[C@]1(C)CCN(CC)C1C2 (mixture of isomers) | 7.35 |  | LD50 (Mus musculus [8]): 5 mg/kg
CCCCCCCNC(=O)Oc1ccc2c(c1)[C@]1(C)CCN(CC)C1C2 (mixture of isomers) | 7.24 |  | LD50 (Mus musculus [8]): 9 mg/kg
CCCCCCNC(=O)Oc1ccc2c(c1)[C@]1(C)CCN(CC)C1C2 (single isomer, unassigned; (+)) | 6.63 |  | LD50 (Mus musculus [8]): 32 mg/kg
CCCCCCCNC(=O)Oc1ccc2c(c1)[C@]1(C)CCN(CC)C1C2 (single isomer, unassigned; (+)) | 6.68 |  | LD50 (Mus musculus [8]): 18 mg/kg
CCCCCCNC(=O)Oc1ccc2c(c1)[C@]1(C)CCN(CC)C1C2 (single isomer, unassigned; (-)) | 7.70 |  | LD50 (Mus musculus [8]): 4 mg/kg; Control (Mus musculus [9]): 148%
CCCCCCCNC(=O)Oc1ccc2c(c1)[C@]1(C)CCN(CC)C1C2 (single isomer, unassigned; (-)) | 7.44 |  | LD50 (Mus musculus [8]): 6 mg/kg; Control (Mus musculus [10]): 129%
CCCCCCNC(=O)Oc1ccc2c(c1)[C@@H]1CCN(CCC)C1C2 (stereo in doubt; 1y) | 6.26 |  | 
CCCCCCNC(=O)Oc1ccc2c(c1)[C@@H]1CCN(CCC)C1C2 (stereo in doubt; 1z) | 6.29 |  | 
CCCCCCCNC(=O)Oc1ccc2c(c1)[C@]1(C)CCN(C)[C@@H]1N2C [EPTASTIGMINE] | 6.96 | 24 mg/kg | Control (Mus musculus [11]): 148%
CNC(=O)Oc1ccc2c(c1)[C@]1(C)CCN(C)[C@@H]1N2C [PHYSOSTIGMINE] |  | 0.88 mg/kg | 
